Assay [1] has as its system hemi-anterior pituitaries of adult male rats. As to the kind of experiment: FSH release in vitro from incubated hemi-anterior pituitaries (RIA of medium). Format: cell-based, rat. The note with it: for FSH: n = 6. As for the experimental part: (§1) After acclimatization for 5 or more days in the vivarium, male rats were killed by decapitation. Following removal of the posterior lobe, the anterior pituitary (AP) was bisected longitudinally, and each AP was incubated in a tube containing 0.5 ml Krebs-Ringer bicarbonate (5 mM ascorbic acid; pH 7.4) buffer (KRB) in an atmosphere of 95% O2 /5% CO2 in a Dubnoff shaker (50 cycles per min) for a period of 60 min. Following this pre-incubation period, the APs were incubated for 3 hr in fresh KRB buffer alone (control), or in KRB containing one of various concentrations of synthetic mammalian (m)-LHRH, l-LHRH-III, l-LHRH-I, chicken (c)-LHRH-II, or salmon (s)-LHRH. The medium was then aspirated, and was stored frozen at -20° C. until radio-immunoassays (RIA) for FSH and LH were conducted. FSH and LH were measured using kits supplied by the National Institute of Arthritis Digestive Diabetes and Kidney Disease; hormone values were expressed in terms of NIH-rFSH-RP-2 and NIH-rLH-RP-3 standards. The experiments were repeated twice. The inter- and intra-assay coefficients of variation for FSH assays were 7.5% and 5.2%, respectively; and were 6.5% and 4.8% for LH assays.

The test system is the same in assay [2]. As to the kind of experiment: LH release in vitro from incubated hemi-anterior pituitaries (RIA of medium). It counts as cell-based, rat. The note with it: for LH: n = 6. As for the experimental part: as §1
Assay [3] has as its system ovariectomized, estrogen- and progesterone-blocked female rats. As to the kind of experiment: FSH release in vivo after intravenous injection. Also noted: species or system rat. The note with it: for selectivity for FSH release in vivo, result in words: screen of known LHRH's and LHRH analogs, unpublished data; for Change in FSH from baseline, 10 minutes post-injection: saline control -3.85 ± 0.82. As for the experimental part:
(§2) Female rats were ovariectomized under anesthesia with isoflurane 4 weeks prior to the in vivo experiments. Three days before blood sampling, each ovariectomized rat was injected subcutaneously with 50 μg estradiol benzoate (Sigma Chemical Co., St. Louis, Mo.) dissolved in 0.1 ml sesame oil, and 25 mg progesterone (Eli Lilly, Indianapolis, Ind.) dissolved in 0.5 ml sesame oil. One day prior to testing, each animal was implanted with a jugular-atrial catheter. On the morning of testing, polyethylene tubing (PE-50) was connected to the distal end of the jugular-atrial catheter on the rat's dorsum to facilitate blood sampling and intravenous injection. Animals were acclimatized one hour before initial blood samples were taken. Heparinized blood samples ([…]) were collected just before, and at 10, 30, and 60 minutes after injection of 0.5 ml isotonic saline or l-LHRH-III (10 or 100 pmole) in 0.5 ml isotonic saline. After removal of each blood sample, an equal volume of isotonic saline was administered to maintain blood volume.

Assay [4] has the same test system. As to the kind of experiment: LH release in vivo after intravenous injection. Also noted: species or system rat. The note with it: for Change in LH from baseline, 10 minutes post-injection: saline control -0.070 ± 0.122. As for the experimental part: as §2
The test system of assay [5] is Petromyzon marinus (lamprey) ovaries. The note with it: Sower et al., 1993; cited from earlier work.
[6] abbreviates: Table 4 experiment, 10^-6 M, KRB control 157.5 ± 13.2.
The mark [7] stands for this setting: Table 4 experiment, 10^-7 M, KRB control 157.5 ± 13.2.
Setting [8] is: Table 5 experiment, 10^-6 M, KRB control 149.3 ± 17.0.
[9] abbreviates: Table 5 experiment, 10^-7 M, KRB control 149.3 ± 17.0.
[10] abbreviates: Table 4 experiment, 10^-8 M, KRB control 157.5 ± 13.2.
[11] abbreviates: Table 5 experiment, 10^-8 M, KRB control 149.3 ± 17.0.

“Also recorded” adds a separate entry of the source. Like-named read-outs stand apart in the source and are kept apart here. Where a SMILES comes first, the peptide text is derived from it. [ ]: non-standard residue; d: D form. pGlu = O=C1CC[C@@H](C(=O)O)N1

`CC(C)C[C@H](NC(=O)[C@H](Cc1c[nH]c2ccccc12)NC(=O)CNC(=O)[C@H](Cc1ccc(O)cc1)NC(=O)[C@H](CO)NC(=O)[C@H](Cc1c[nH]c2ccccc12)NC(=O)[C@H](Cc1c[nH]cn1)NC(=O)[C@@H]1CCC(=O)N1)C(=O)N1CCC[C@H]1C(=O)NCC(N)=O` [s-LHRH, pGlu-His-Trp-Ser-Tyr-Gly-Trp-Leu-Pro-Gly-NH2] ([pGlu]HWSYGWLPG-NH2): the “FSH” value in assay [1] (setting [6]) came out at 203.2 ± 39.2 ng/mL; in assay [1] (setting [7]), 233.0 ± 37.4 ng/mL. Further, the “FSH release in vitro, result in words” value in assay [1] (listed as Salmon (s)-LHRH) was “stimulated the release of both FSH and LH”; in assay [1] (listed as Salmon LHRH), “low potency, and lacked specificity for FSH release”. Besides, in assay [2], the “LH release in vitro, result in words” value is “stimulated the release of both FSH and LH”. Further, the “LH” value turned out to be 186.2 ± 13.6 ng/mL in assay [2] (setting [8]) and 230.8 ± 38.8 ng/mL in assay [2] (setting [9]).

Consider `NC(=O)CNC(=O)[C@@H]1CCCN1C(=O)[C@H](Cc1ccc(O)cc1)NC(=O)[C@H](Cc1c[nH]c2ccccc12)NC(=O)CNC(=O)[C@H](Cc1c[nH]cn1)NC(=O)[C@H](CO)NC(=O)[C@H](Cc1c[nH]c2ccccc12)NC(=O)[C@H](Cc1c[nH]cn1)NC(=O)[C@@H]1CCC(=O)N1` [c-LHRH-II, pGlu-His-Trp-Ser-His-G1y-Trp-Tyr-Pro-Gly-NH2] ([pGlu]HWSHGWYPG-NH2), for which the “FSH release in vitro, result in words” value in assay [1] was “only significantly increased FSH release at the highest concentration tested (10^-6 M)”; in assay [1] (listed as chicken LHRH-II), “low potency, and lacked specificity for FSH release”. For the same compound, the results for the “FSH” value in assay [1] (setting [6]), in assay [1] (setting [7]) and in assay [1] (setting [10]) were 263.7 ± 17.8 ng/mL, 209.3 ± 44.0 ng/mL and 123.7 ± 18.0 ng/mL, respectively. Also, the entries for the “LH release in vitro, result in words” value in assay [2] and in assay [2] (listed as Chicken (c) LHRH-II) were “equivalent LH-releasing activity to that of m-LHRH” and “stimulated LH release at doses from 10^-8 to 10^-6 M”, respectively. The “LH” value in assay [2] (setting [8]) was 239.0 ± 31.7 ng/mL; in assay [2] (setting [9]), 216.3 ± 17.7 ng/mL; in assay [2] (setting [11]) it was 199.3 ± 13.6 ng/mL. In addition, the “selectivity for FSH release in vivo, result in words” value is on record as “slight selectivity for FSH release” in assay [3] and “slightly preferential FSH-releasing activity in vivo” in assay [3] (listed as chicken (c) LHRH-II).

As for `NCCCC[C@H](NC(=O)[C@H](Cc1c[nH]c2ccccc12)NC(=O)[C@H](CC(=O)O)NC(=O)[C@H](Cc1c[nH]cn1)NC(=O)[C@H](CO)NC(=O)[C@H](Cc1c[nH]c2ccccc12)NC(=O)[C@H](Cc1c[nH]cn1)NC(=O)[C@@H]1CCC(=O)N1)C(=O)N1CCC[C@H]1C(=O)NCC(N)=O` [l-LHRH-III, pGlu-His-Trp-Ser-His-Asp-Trp-Lys-Pro-Gly-NH2], in assay [1], the “FSH release in vitro, result in words” value was “approximately equipotent toward releasing FSH; also recorded: caused FSH release in a dose-related fashion”. Moreover, the “FSH” value in assay [1] (Table 2, 10^-4 M, 3 hr incubation, KRB control 97.7 ± 20.4) was 368.6 ± 40.9 ng/mL; in assay [1] (Table 2, 10^-5 M, 3 hr incubation, KRB control 97.7 ± 20.4), 283.0 ± 60.8 ng/mL; in assay [1] (Table 2, 10^-6 M, 3 hr incubation, KRB control 97.7 ± 20.4), 278.2 ± 40.9 ng/mL; in assay [1] (Table 2, 10^-7 M, 3 hr incubation, KRB control 97.7 ± 20.4), 213.0 ± 17.9 ng/mL; in assay [1] (Table 2, 10^-8 M, 3 hr incubation, KRB control 97.7 ± 20.4) it was 255.7 ± 42.4 ng/mL; in assay [1] (Table 2, 10^-9 M, 3 hr incubation, KRB control 97.7 ± 20.4) it was 228.3 ± 52.5 ng/mL. For the same compound, the “FSH” value turned out to be 215.0 ± 38.0 ng/mL in assay [1] (setting [6]); 203.2 ± 16.4 ng/mL in assay [1] (setting [7]); 249.3 ± 31.3 ng/mL in assay [1] (setting [10]); 196.3 ± 21.2 ng/mL in assay [1] (Table 4 experiment, 10^-9 M, KRB control 157.5 ± 13.2). Further, in assay [1] (Table 4 experiment), the “MEC for statistically significant FSH release relative to c-LHRH-II” value is “two orders of magnitude lower”. Also, the “minimal effective concentration (MEC) for FSH release” value in assay [1] (lowest concentration tested 10^-9 M) is reported as ≤ 10^-9 M. Moreover, the “concentration of maximal effect on FSH release” value in assay [1] (release levelled off through 10^-4 M) is recorded as “about 10^-6 M”. Moreover, the “LH” value in assay [2] (Table 3, 10^-4 M, 3 hr incubation, KRB control 139.3 ± 16.9) stood at 236.6 ± 19.3 ng/mL; in assay [2] (Table 3, 10^-5 M, 3 hr incubation, KRB control 139.3 ± 16.9), 202.9 ± 31.2 ng/mL; in assay [2] (Table 3, 10^-6 M, 3 hr incubation, KRB control 139.3 ± 16.9) it was 233.6 ± 33.8 ng/mL; in assay [2] (Table 3, 10^-7 M, 3 hr incubation, KRB control 139.3 ± 16.9) it was 179.9 ± 28.4 ng/mL; in assay [2] (Table 3, 10^-8 M, 3 hr incubation, KRB control 139.3 ± 16.9), 165.7 ± 26.6 ng/mL; in assay [2] (Table 3, 10^-9 M, 3 hr incubation, KRB control 139.3 ± 16.9) it was 171.8 ± 27.3 ng/mL. Further, the “LH” value in assay [2] (setting [8]) came to 176.0 ± 9.3 ng/mL; in assay [2] (setting [9]), 182.7 ± 13.7 ng/mL; in assay [2] (setting [11]), 163.2 ± 6.5 ng/mL; in assay [2] (Table 5 experiment, 10^-9 M, KRB control 149.3 ± 17.0), 158.7 ± 10.2 ng/mL. The “release of FSH versus LH in vivo, result in words” value in assay [3] (10 pmole and 100 pmole) was “caused the release of FSH in vivo, but not LH”. For the same compound, the “plasma FSH after injection versus saline control, result in words” value in assay [3] (10 pmole intravenous) is on record as “highly significant increase in plasma FSH 10 minutes after injection, an effect that vanished by 30 minutes post-injection; also recorded: increase in FSH in vivo (P<0.01) within ten minutes”; in assay [3] (100 pmole intravenous) it was “slightly greater effect at 10 minutes that was maintained 30 minutes after injection”. The “Change in FSH from baseline, 10 minutes post-injection” value in assay [3] (10 pmole intravenous, n = 6) is -0.75 ± 0.37 ng/mL; in assay [3] (100 pmole intravenous, n = 7), -0.43 ± 0.61 ng/mL. In addition, the “Change in LH from baseline, 10 minutes post-injection” value in assay [4] (10 pmole intravenous, n = 6) is -0.022 ± 0.078 ng/mL; in assay [4] (100 pmole intravenous, n = 7), 0.097 ± 0.077 ng/mL. Besides, the “plasma LH after injection versus saline control, result in words” value in assay [4] (10 pmole or 100 pmole intravenous, 10, 30, 60 minutes) is reported as “no significant increase in LH”. The “estradiol and progesterone release from ovaries” value in assay [5] is “stimulated estradiol and progesterone release”.

`CC(C)C[C@H](NC(=O)CNC(=O)[C@H](Cc1ccc(O)cc1)NC(=O)[C@H](CO)NC(=O)[C@H](Cc1c[nH]c2ccccc12)NC(=O)[C@H](Cc1c[nH]cn1)NC(=O)[C@@H]1CCC(=O)N1)C(=O)N[C@@H](CCCNC(=N)N)C(=O)N1CCC[C@H]1C(=O)NCC(N)=O` [m-LHRH, pGlu-His-Trp-Ser-Tyr-Gly-Leu-Arg-Pro-Gly-NH2]: the “FSH release in vitro, result in words” value in assay [1] is reported as “approximately equipotent toward releasing FSH; also recorded: equivalent levels of FSH release at the two concentrations tested”. Besides, the “FSH” value was found to be 257.5 ± 42.4 ng/mL in assay [1] (Table 2, 2 × 10^-8 M, 3 hr incubation, KRB control 97.7 ± 20.4); 218.5 ± 35.7 ng/mL in assay [1] (Table 2, 4 × 10^-9 M, 3 hr incubation, KRB control 97.7 ± 20.4); 320.5 ± 42.6 ng/mL in assay [1] (Table 4 experiment, 2 × 10^-8 M, KRB control 157.5 ± 13.2). Besides, the “LH release in vitro, result in words” value in assay [2] was “dose-related stimulatory effect on LH release, and was active at the lowest concentration tested (4×10^-9 M)”. Moreover, the “LH” value in assay [2] (Table 3, 2 × 10^-8 M, 3 hr incubation, KRB control 139.3 ± 16.9) is 262.0 ± 36.1 ng/mL; in assay [2] (Table 3, 4 × 10^-9 M, 3 hr incubation, KRB control 139.3 ± 16.9) it was 183.1 ± 27.0 ng/mL; in assay [2] (Table 5 experiment, 2 × 10^-8 M, KRB control 149.3 ± 17.0) it was 214.7 ± 30.3 ng/mL.

These data come from patent publication US6300471A, “FSH-releasing peptides” (Board of Supervisors of Louisiana State University and …, priority 1998, dated 2001).
